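Cultured in 96-well plates, cells were exposed to test compound for 48 hours across five concentrations. TGI: total growth inhibition.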
Experiments:
Assay in all cases: growth of human tumour cells (NCI), 48 h
[1] = system: MALME-3M melanoma
[2] = system: RXF 393 renal
[3] = system: SK-MEL-2 melanoma
[4] = system: OVCAR-8 ovarian
[5] = system: COLO 205 colon
[6] = system: IGROV1 ovarian
[7] = system: HL-60(TB) leukemia
[8] = system: HOP-92 NSCLC
[9] = system: UO-31 renal
[10] = system: KM12 colon

Compound | TGI [1] [µM] | TGI [2] [µM] | TGI [3] [µM] | TGI [4] [µM] | TGI [5] [µM] | TGI [6] [µM] | TGI [7] [µM] | TGI [8] [µM] | TGI [9] [µM] | TGI [10] [µM]
CN(C)c1ccc(-c2c(C#N)c(N)[nH]c(=S)c2C#N)cc1 | > 100 | > 100 | > 100 | > 100 | > 100 | > 100 | > 100 | > 100 | > 100 | –
O=C1CC(=O)NC(=NN2C(=O)CSC2c2ccc(Cl)c(Cl)c2)N1 (stereo not drawn) | > 100 | > 100 | > 100 | > 100 | > 100 | > 100 | – | > 100 | > 100 | > 100
CCOC(=O)CCC(NC(=O)Cc1ccc(Nc2nc3ccccc3nc2-c2ccccc2)cc1)C(=O)OCC (stereo not drawn) | > 100 | 44.8 | 72.7 | > 100 | > 100 | > 100 | > 100 | 45.8 | > 100 | > 100
CCOC(=O)/C(C)=C\[C@@]1(C)O[C@@H](C)[C@@](C)(OC(C)=O)[C@@H]1OC(C)=O | > 100 | – | > 100 | > 100 | > 100 | > 100 | > 100 | > 100 | – | > 100
Fc1c(F)c(C(F)(F)F)c(F)c(F)c1N/N=C\c1c[nH]c2ccccc12 | 16.1 | 7.93 | 8.81 | 21.8 | 2.71 | 10.4 | 9.25 | 16.5 | 3.85 | 4.06
CC1=C/C(=N\OCC(=O)O)CC(c2ccc(C(C)C)cc2)C1 (stereo not drawn) | > 100 | > 100 | > 100 | > 100 | > 100 | > 100 | > 100 | > 100 | – | > 100
Cc1nn2c(=O)c([N+](=O)[O-])c(/C=C/c3ccccc3)nc2s1 | > 71.7 | 7.32 | 12.4 | 5.26 | 28.8 | > 67.8 | 5.61 | > 100 | > 54 | 11
O=C1CSC2(CC(/C=C/c3ccccc3O)=NN2c2cccc(S(=O)(=O)O)c2)N1c1nc2ccccc2s1 (stereo not drawn) | > 100 | > 100 | > 100 | 54.1 | > 100 | > 100 | 49 | > 100 | 98.9 | > 100
O=C(NC(C(F)(F)F)(C(F)(F)F)P(=O)(c1ccccc1)c1ccccc1)C(C(F)(F)F)C(F)(F)F | 33.6 | 68.2 | > 100 | 72.8 | 37.4 | 57.7 | 63.2 | – | – | 56.8
CCOC(=O)c1cc(Sc2ccc(N)c(C(=O)OCC)c2)ccc1N | > 100 | > 100 | > 100 | > 100 | > 100 | > 100 | > 100 | > 100 | – | > 100
CSC1=N[C@H](c2ccccc2)CS1 | – | – | > 100 | – | > 100 | > 100 | – | – | > 100 | > 100
CN(C)c1ccc(/C=C/C=C\C2=CC(=C\C=C/C=C3C=CC(=[N+](C)C)C=C3)/Sc3ccccc32)cc1 | > 100 | 32.7 | > 100 | > 100 | 78.3 | – | > 100 | – | > 100 | > 100
NCCCCNCCCN1CC1 | > 91.9 | 1.05 | – | – | 3.71 | > 21.5 | 5.32 | 7.47 | 12.8 | 24.4
CC(=O)/C(=C\c1ccco1)C(=O)Nc1ccccc1 | > 100 | > 100 | > 100 | > 100 | – | > 100 | > 100 | > 100 | > 100 | > 100
COc1cc2c(cc1OC)-c1[nH]c3ccc(C#N)cc3c1CC(=O)N2 | > 100 | – | – | > 100 | 10.6 | > 100 | 7.45 | > 100 | > 22.6 | > 100
Nc1ccn(C2CC(O)C(COP(O)(=S)OC3CC(n4ccc(N)nc4=O)OC3CO)O2)c(=O)n1 (stereo not drawn) | – | – | > 100 | > 100 | > 100 | > 100 | > 100 | > 100 | > 100 | > 100
CC1=C(C(=O)Nc2cccc3c2C(=O)NC3=O)CC(C(=O)Nc2cccc3c2C(=O)NC3=O)=C(C)N1 | > 100 | > 100 | > 100 | – | > 100 | > 100 | > 100 | > 100 | > 100 | > 100
Cc1c2cnccc2c(C)c2c1[nH]c1ccc(O)cc12 | 8.28 | 7.24 | > 10 | 3.41 | > 10 | > 10 | 2.98 | – | – | 2.34
COC(=O)N1C[C@@]2(C=CC3(CC2)OCCO3)c2ccccc21 | – | – | > 100 | > 100 | > 100 | > 100 | 58.4 | > 100 | > 100 | > 100
O=C(O)c1c[nH]c2c(Sc3ccccc3)nccc2c1=O | – | – | > 100 | > 100 | > 100 | > 100 | > 100 | > 100 | > 100 | > 100
CCOC(=O)CSc1ccnc(=O)[nH]1 | > 100 | > 100 | > 100 | > 100 | > 100 | > 100 | > 100 | – | > 100 | > 100
O=C(NO)c1ccc([N+](=O)[O-])cc1 | > 100 | 71.8 | > 100 | > 100 | 94 | > 100 | 50.9 | – | > 100 | > 100
COc1ccc(/C=C2\OC(=O)C(Cl)=C2c2ccc(OC)cc2)cc1 | > 100 | – | > 100 | > 100 | > 100 | > 100 | > 100 | 70.1 | > 100 | > 100
